We go through three compounds from patent US8012484B2, “Method of treating ischemia reperfusion injury by inhibiting NKT cell activity” (University of Virginia Patent Foundation, priority 2007, dated 2011).

Assay [1] has as its system invariant NKT cells in a mixed splenocyte culture. As to the kind of experiment: α-Gal-Cer stimulated IFN-γ production by iNKT cells in mixed splenocyte culture. Type of assay: cell-based, mice. Particulars: for effect of antagonist on ATL146e inhibition of α-Gal-Cer mediated IFN-γ production: 1 μM α-Gal-Cer. On the procedure:
(§1) FIGS. 5A-E. Inhibition by ATL146e of IFN-γ production by activated NKT cells. A) Purified NKT cells (200,000 per well) were incubated on immobilized anti-CD3 mAb in the presence of vehicle or 100 nM ATL146e. Supernatants were collected after 24 hours and IFN-γ concentrations were measured by ELISA. Data are shown as the mean±SEM from three independent experiments performed in triplicate. *p<0.01 vs. vehicle control as assessed by unpaired t-test B) Bulk splenocytes (300,000 cells per well) were incubated with 1 U/mL ADA and 1 nM-1 μM α-galactosylceramide in the presence of 100 nM ATL146e or vehicle. C) Bulk splenocytes (300,000 cells per well) were incubated with 1 U/mL ADA and 1 μM α-galactosylceramide in the presence or absence of varying concentrations of ATL146e±100 nM ZM241385 or vehicle. D) Bulk splenocytes (300,000 cells per well) were incubated with 1 U/mL ADA and 1 μM α-galactosylceramide in the presence or absence of 1 nM ATL146e±1 μM 8-SPT or vehicle. E) Purified CD4^+NK1.1^+ T cells (150,000 cells per well) were incubated with lymphocyte and NK cell-deficient splenocytes (300,000 cells per well), 1 U/mL ADA and 1 μM α-galactosylceramide in the presence or absence of 100 nM ATL146e±100 nM ZM241385. NK1.1-expressing cells were depleted from RAG 1 KO splenocytes via FACSVantage SE Turbo Sorter. Supernatants were collected after 48 hours, and IFN-γ concentrations were determined by ELISA. Data shown are from a single experiment performed in triplicate, representative of three independent experiments; error bars indicate SEM. (B-E)*p<0.01 vs. vehicle control as assessed by one way ANOVA followed by Dunnetts multiple comparison test.
Cells were washed and resuspended in RPMI 1640 medium supplemented with 10% heat-inactivated fetal bovine serum and 1% antibiotic-antimycotic (Gibco, Carlsbad, Calif.). In vitro activation of NKT cells was achieved by co-culture for 48 hours with splenocytes and 1 nM-1 μM α-Gal-Cer (KRN7000; from Kumi Miyayama of Kirin Brewery Company, Tokyo) at 37° C. in 5% CO2. Alternately, NKT cells were activated by incubation for 24 hours in 96 well plates coated with 2-10 μg/mL immobilized anti-CD3 mAb (BD Biosciences) at 37° C. in 5% CO2. All in vitro T cell activation experiments were performed with the addition of 1 U/mL adenosine deaminase (ADA) (Roche, Indianapolis, Ind.) to remove endogenous adenosine produced by the cells that may partially activate the A2AR. […]
(§2) IFN-γ concentrations in cell culture supernatants or serum samples were measured by ELISA according to the manufacturer's protocol (e-Bioscience).

The test system of a further assay is CD4+ NK1.1+ NKT cells. As to the kind of experiment: IFN-γ production by purified NKT cells activated on immobilized anti-CD3 mAb. Particulars: Mus musculus, 100 nM, 24 hours of incubation, read-out: inhibition of TCR-stimulated IFN-γ production. Type of assay: cell-based, mice. On the procedure:
Wild-type, A2AR KO, or IFN-γ KO C57BL/6 mice were sacrificed and spleens removed. Splenocytes were passed through a 40 μm nylon cell strainer (BD Biosciences, San Jose, Calif.) and collected in phosphate buffered saline. Red blood cells were lysed and CD4^+ T lymphocytes were isolated with mouse CD4 subset column kits (R and D Systems, Minneapolis, Minn.) resulting in >92% pure CD4^+ T cells. The column-purified cells were stained for 30 minutes with FITC-conjugated anti-mouse CD4 and PE-conjugated anti-mouse NK1.1 (eBioscience, San Diego, Calif.) and sorted using a FACSVantage SE Turbo Sorter (Becton Dickinson, Franklin Lakes, N.J.) to produce cell populations of ≧99.8% pure CD4^+NK1.1^+ T lymphocytes.
Cells were washed and resuspended in RPMI 1640 medium supplemented with 10% heat-inactivated fetal bovine serum and 1% antibiotic-antimycotic (Gibco, Carlsbad, Calif.). In vitro activation of NKT cells was achieved by co-culture for 48 hours with splenocytes and 1 nM-1 μM α-Gal-Cer (KRN7000; from Kumi Miyayama of Kirin Brewery Company, Tokyo) at 37° C. in 5% CO2. Alternately, NKT cells were activated by incubation for 24 hours in 96 well plates coated with 2-10 μg/mL immobilized anti-CD3 mAb (BD Biosciences) at 37° C. in 5% CO2. […]
as §2

The test system of assay [2] is hepatic IRI in WT C57BL/6 mice. As to the kind of experiment: Hepatic ischemia reperfusion injury (72 min ischemia, 24 h reperfusion): serum ALT and necrotic area. Type of assay: in vivo. As to conditions: 72 min hepatic ischemia. On the procedure: Mice were anesthetized by intraperitoneal injection of ketamine (100 mg/kg) and xylazine (10 mg/kg). Ambient temperature was controlled in the range of 24-26° C. and mice were placed on a 37° heating pad. Core body temperature of selected mice was monitored with a TH-8 Thermalert monitoring thermometer (Physitemp) and ranged from 35-36°. After midline laparotomy, a microaneurysm clip was applied to the hepatic triad above the bifurcation to clamp the flow of the hepatic artery, portal vein, and bile duct. After superfusion of the liver with warm saline, the peritoneum was closed during 72 min of ischemia. The peritoneum was then reopened and the microaneurysm clip was removed. […]
(§3) Following liver ischemia, blood was collected via retro-orbital bleed 24 hours after the initiation of reperfusion. Serum ALT was measured with a transaminase kit according to the manufacture's protocol (Pointe Scientific, Canton, Mich.). […] The plate was placed in a spectrophotometer preheated to 37° C., and the absorbance at […] was measured every minute for 10 minutes. The slope of the linear portion of the change in absorbance over time was used to calculate IU/L of ALT.
Mice were sacrificed and livers perfused with saline via the portal vein at various times after the initiation of reperfusion. […] Necrotic area was quantified using Adobe Photoshop software.

The subject of assay [3] is purified CD4+ NK1.1+ NKT cells. As to the kind of experiment: IFN-γ release from purified NKT cells activated with α-Gal-Cer in the presence of NK cell-depleted RAG 1 KO splenocytes. Type of assay: cell-based, mice. As to conditions: 1 μM α-Gal-Cer. On the procedure: as §1, with “E) Purified CD4^+NK1.1^+ T cells (150,000 cells per well) were incubated with lymphocyte and NK cell-deficient splenocytes (300,000 cells per well), 1 U/mL ADA and 1 μM α-galactosylceramide in the presence or absence of 100 nM ATL146e±100 nM ZM241385. NK1.1-expressing cells were depleted from RAG 1 KO splenocytes via FACSVantage SE Turbo Sorter.” left out, “Data shown are from a single experiment performed in triplicate, representative of three independent experiments; error bars indicate SEM.” left out, “test. […]” for “test.”
as §2

The test system of another assay is IFN-γ. The experiment in a line: Serum/plasma IFN-γ 24 hours after reperfusion (ELISA). Type of assay: in vivo, mice. Particulars: 24 hours after reperfusion injury. On the procedure: (§4) Mice were anesthetized by intraperitoneal injection of ketamine (100 mg/kg) and xylazine (10 mg/kg). Ambient temperature was controlled in the range of 24-26° C. and mice were placed on a 37° heating pad. Core body temperature of selected mice was monitored with a TH-8 Thermalert monitoring thermometer (Physitemp) and ranged from 35-36°. After midline laparotomy, a microaneurysm clip was applied to the hepatic triad above the bifurcation to clamp the flow of the hepatic artery, portal vein, and bile duct. After superfusion of the liver with warm saline, the peritoneum was closed during 72 min of ischemia. The peritoneum was then reopened and the microaneurysm clip was removed. For select experiments, animals received an i.p. loading dose (1 μg/kg) of ATL146e or vehicle control immediately after the onset of reperfusion, and a primed Alzet osmotic minipump was implanted intraperitoneally. ATL146e (10 ng/kg/min) or vehicle was placed in the pumps and delivered until the experiment was terminated. The peritoneum was sutured and the surgical wound was closed with metal staples. Animals were sacrificed by cervical dislocation at various time points after the initiation of reperfusion and blood was collected via retro-orbital bleed. […]
as §2

The subject of assay [4] is RAG 1 KO mice reconstituted with CD4+NK1.1+ NKT cells. As to the kind of experiment: Hepatic IRI in RAG 1 KO mice after adoptive transfer of NKT cells: serum ALT. Type of assay: in vivo. On the procedure: as §4, with “intraperitoneally.” for “intraperitoneally. ATL146e (10 ng/kg/min) or vehicle was placed in the pumps and delivered until the experiment was terminated. The peritoneum was sutured and the surgical wound was closed with metal staples. Animals were sacrificed by cervical dislocation at various time points after the initiation of reperfusion and blood was collected via retro-orbital bleed.”
as §3

For assay [5], the system named is NKT cells isolated from post-ischemic mouse liver and liver-draining lymph nodes. As to the kind of experiment: Intracellular IFN-γ in NKT cells from post-ischemic liver after 2 hours of reperfusion (FACS). Type of assay: in vivo, mice. Particulars: treatment at the initiation of reperfusion. On the procedure: as §4, with “staples.” for “staples. Animals were sacrificed by cervical dislocation at various time points after the initiation of reperfusion and blood was collected via retro-orbital bleed.”
Intracellular IFN-γ was detected in liver NKT cells by FACS analysis using Fix and Perm Cell Permeabilization Reagents according to the manufacturer's protocol (Caltag Laboratories, Carlsbad, Calif.).

As for `Cn1c(=O)c2[nH]c(-c3ccc(S(=O)(=O)O)cc3)nc2n(C)c1=O` [8-SPT, 8-sulfophenyltheophylline], the “effect of antagonist on ATL146e inhibition of α-Gal-Cer mediated IFN-γ production” value in assay [1] (1 μM antagonist, 1 nM ATL146e) is “blocks the inhibitory effects of ATL146e”.
A word on the inhibition: it is how much of the control response was suppressed. In general, EC50 refers to the concentration giving half of the maximal effect. Take `CCNC(=O)C1OC(n2cnc3c(N)nc(C#CCC4CCC(C(=O)OC)CC4)nc32)C(O)C1O` (stereo not shown) [ATL146e, 4-{3-[6-Amino-9-(5-ethylcarbamoyl-3,4-dihydroxy-tetrahydro-furan-2-yl)-9H-purin-2-yl]-prop-2-ynyl}-cyclohexanecarboxylic acid methyl ester]: the inhibition at 0.1 µM in the assay with CD4+ NK1.1+ NKT cells was roughly 73%. Moreover, the “reduction in serum ALT levels versus vehicle treated controls” value in assay [2] (24 hours after reperfusion) is given as “approximately 58%”. In assay [2] (24 hours of reperfusion, H and E staining, vehicle 79.3±3%), this compound showed a necrotic area of 6.1±0.8%. Further, the “inhibition of α-Gal-Cer stimulated IFN-γ production (in words)” value in assay [1] (100 nM, 1 nM-1 μM α-Gal-Cer, mixed splenocyte culture, 48 hours) was “inhibited competently”. In addition, the EC50 in assay [1] (Mus musculus, NKT, stimulated by 1 μM α-Gal-Cer, mixed splenocytes, 48 hours, read-out: EC50 of inhibition of iNKT-mediated production of IFN-γ) was 0.58 nM. The “reduction of IFN-γ derived from NKT cell activation” value in assay [3] (100 nM ATL146e, lymphocyte-deficient NK cell-depleted RAG 1 KO splenocytes as APCs) is on record as 93%. For the same compound, the “elevation of plasma IFN-γ concentrations” value with IFN-γ is given as “diminished this elevation to a similar extent”. Besides, the “protection from tissue damage (serum ALT)” value in assay [4] (RAG 1 KO mice, 250,000 NKT cells from A2AR KO mice transferred) is “abolishes the effect of agonist administration”; in assay [4] (RAG 1 KO mice, 250,000 WT NKT cells transferred), “protects from tissue damage only when WT cells are transferred”. Besides, the “increase in intracellular IFN-γ expression of NKT cells (activation)” value in assay [5] is “significantly inhibits this activation”.
On to `Nc1nc(NCCc2ccc(O)cc2)nc2nc(-c3ccco3)nn12` [ZM241385, 4-(2-[7-amino-2-[2-furyl][1,2,4]triazolo[2,3-a][1,3,5]triazin-5-yl-amino]ethyl)phenol], for which, in assay [1] (100 nM antagonist, varying concentrations of ATL146e), the “effect of antagonist on ATL146e inhibition of α-Gal-Cer mediated IFN-γ production” value is “causes a right shift in the ATL146e dose response curve”. The “effect of antagonist on ATL146e reduction of IFN-γ” value in assay [3] (co-treatment with 100 nM antagonist) is “this effect was blocked”.
